Laboratory results taken from patent publication US20080090278A1, “METHOD FOR ENHANCING STABILITY OF A COMPOSITION COMPRISING SOLUBLE GLUCOSE DEHYDROGENASE (GDH)” (TOYO BOSEKI KABUSHIKI KAISHA, priority 2006, published 2008).

Tests used:
Assay type in all cases: physicochemical
[1] = test system: recombinant FAD-GDH (rAO-FAD-GDH) derived from Aspergillus oryzae; assay: Thermal stabilization effect of stabilizing agents on rAO-FAD-GDH in solution (Examples 3-6); settings: for thermal stabilization effect on FAD-GDH (in words): rAO-FAD-GDH, 50° C. for 15 minutes, Example 3; for Residual activity ratio (%) after treatment at 50° C., 15 min: stabilizer final concentration 1%, rAO-FAD-GDH about 2 U/mL, 50 mM potassium phosphate buffer pH 5.5, 0.1% Triton X-100, 4° C. sample = 100; for GDH Residual activity ratio (%) after treatment at 50° C., 15 min: final concentration BSA 2.5%, serine 10%, alone or combined
Protocol: Enhancement of the thermal stability referred to herein means increasing of a residual ratio (%) of the GDH enzyme kept after giving the treatment with heat at a certain temperature for a certain time period to the composition comprising the GDH enzyme. In the present invention, the activity in the sample stored at 4° C. which is nearly completely kept is made 100%, this is compared with the activity in the GDH solution after giving the treatment with heat at a certain-temperature for a certain time period, and the residual ratio of the enzyme is calculated.
In the method for measuring the activity described in the method for measuring the GDH enzyme activity described later, an activity value (a) of GDH in the solution stored at 4° C. and an activity value (b) of GDH after giving the treatment with heat at a certain temperature for a certain time period were measured, a relative value[(b)/(a)×100] when the activity value (a) was made 100 was calculated. This relative value was made the residual ratio (%). Comparing the presence with the absence of the added compound, when the residual ratio was increased by the addition of the compound, it was determined that the thermal stability was enhanced.
In the present invention, the activity of FAD-dependent GDH is measured as follows.
The reaction-reagent is made by mixing 15.6 mL of the PIPES buffer, 0.2 mL of the DCPIP solution and 4 mL of the D-glucose solution.
(§1) The reaction reagent (3 mL) is preliminarily heated at 37° C. for 5 minutes. The GDH solution (0.1 mL) is added and gently mixed, subsequently the change of absorbance at 600 nm is recorded for 5 minutes using the spectrophotometer controlled to 37° C. using water as the control, and the change of absorbance per one minute (ΔODTEST) is calculated from the linear portion of the record. The solvent in which GDH will be dissolved in place of the blinded GDH solution is added to the reagent mixture, and the change of absorbance (ΔODBLANK) per one minute is measured. The GDH activity is calculated from these values according to the following formula. One unit (U) in the GDH activity is defined as the amount of the enzyme which reduces […] DCPIP for one minute in the presence of 200 mM D-glucose. Activity (U/mL)=[−(ΔODTEST−ΔODBLANK)×3.0×dilution scale]/(16.3×0.1×1.0) In the above formula, 3.0 represents a liquid amount (mL) of the reaction reagent+the enzyme solution, 16.3 represents a millimolar molecular absorbance coefficient (cm^2/μmol) in the condition for measuring this enzyme, 0.1 represents the liquid amount of the enzyme solution (mL) and 1.0 represents a light path length (cm) of the cell.
The study was performed in accordance with the method for measuring the FAD-GDH activity in Test Example 1 described above.
First, 50 mL of an enzyme solution obtained by dissolving the recombinant FAD-GDH (rAO-FAD-GDH)-derived from Aspergillus oryzae obtained in Example 1 at about 2 U/mL in an enzyme dilution solution (50 mM potassium phosphate buffer, pH 5.5, 0.1% Triton X-100) was prepared. Two tubes in which each stabilizing agent described in Table 1 had been added at each final concentration to 0.9 mL of this enzyme solution to make the total volume 1.0 mL were prepared.
In two tubes, one tube was stored at […] and another tube was treated at 50° C. for 15 minutes. Then, the FAD-GDH activity in each tube was measured. The enzyme activity in the tube stored at 4° C. was made 100, and comparing with it, the activity value after being treated at 50° C. for 15 minutes was calculated as the residual activity ratio (%).
The method was in accordance with Example 3 described above.
The methods were in accordance with Example 3 above.

[2] = test system: recombinant FAD-GDH (rAT-FAD-GDH) derived from Aspergillus terreus; assay: Thermal stabilization effect of stabilizing agents on rAT-FAD-GDH in solution (Example 9); settings: for Residual activity ratio (%) / GLD activity value (U/ml) 50° C., 15 min: Table 10, buffer 50 mM K-PB, stabilizer at each final concentration described in Table 1; for Residual activity ratio (%): 50° C., 15 min versus 4° C.; for thermal stabilization effect on FAD-GDH (in words): rAT-FAD-GDH, 50° C. for 15 minutes, Example 9
Protocol: as §1, with “D-glucose.” for “D-glucose. Activity (U/mL)=[−(ΔODTEST−ΔODBLANK)×3.0×dilution scale]/(16.3×0.1×1.0) In the above formula, 3.0 represents a liquid amount (mL) of the reaction reagent+the enzyme solution, 16.3 represents a millimolar molecular absorbance coefficient (cm^2/μmol) in the condition for measuring this enzyme, 0.1 represents the liquid amount of the enzyme solution (mL) and 1.0 represents a light path length (cm) of the cell.”
Two tubes in which each stabilizing agent described in Table 1 had been added at each final concentration to 0.9 mL of this enzyme solution to make the total volume 1.0 mL were prepared.
In two tubes, one tube was stored at 4° C. and another tube was treated at 50° C. for 15 minutes. Then, the FAD-GDH activity in each tube was measured. The enzyme activity in the tube stored at 4° C. was made 100, and comparing with it, the activity value after being treated at 50° C. for 15 minutes was calculated as the residual activity ratio (%).

[3] = test system: recombinant FAD-GDH (rAO-FAD-GDH) derived from Aspergillus oryzae; assay: Thermal stabilization effect of stabilizing agents on rAO-FAD-GDH in solution (Examples 3-6)
[4] = test system: recombinant FAD-GDH preparation (rAO-FAD-GDH) derived from Aspergillus oryzae; assay: Storage stability of freeze-dried (powdered) rAO-FAD-GDH with stabilizing agents (Example 8); settings: for storage stabilization effect on the powdered enzyme (in words): Example 8, Tables 7 and 8; for GDH activity Residual ratio (%): 70% humidity
Protocol: as §1
The study was performed using the recombinant FAD-GDH preparation (rAO-FAD-GDH) derived from Aspergillus oryzae obtained in Example 1 in accordance with the method for measuring the FAD-GDH activity in Test Example 1 above. The amount of the protein which occupied in the FAD-GDH enzyme solution was measured, and 1 mL of the solution in which the stabilizing agent corresponding to 60% or 30% relative to this had been dissolved therein was prepared.
Several vials in which 0.2 mL of the enzyme solution containing each stabilizing agent had been correctly dispensed were prepared. As the control, the vials in which the stabilizing agent had not been added was prepared. The prepared vials were subjected to vacuum freeze-dry (FDR) to completely evaporate the water. Then, only two samples in which the same stabilizing agent had been added were subjected to the measurement of the activity. Meanwhile, the remaining vials were treated at 25° C. at a humidity of 70% for several hours, and then stored at 37° C. for one week. Subsequently, the residual activity was measured. The residual activity ratio (%) was calculated by making the average activity immediately after FDR 100% and measuring the average activity of the samples after storing at 37° C.

[5] = Table 4, each stabilizer at final concentration 1%, alone or in pairs

NCC(=O)O [Glycine]
thermal stabilization effect on FAD-GDH (in words) [1]: high effect | Residual activity ratio (%) after treatment at 50° C., 15 min [1]: 26.4% | Residual activity ratio (%) [2]: 3.3% | GLD activity value (U/ml) 50° C., 15 min [2]: 0.094 U/ml | thermal stabilization effect on FAD-GDH (in words) [2]: high effect | GDH Residual activity ratio (%) after treatment at 50° C., 30 min [3, 5]: 4.84%

O.O.OC[C@H]1O[C@H](O[C@H]2O[C@H](CO)[C@@H](O)[C@H](O)[C@H]2O)[C@H](O)[C@@H](O)[C@@H]1O [D-(+)-trehalosedihydrate]
thermal stabilization effect on FAD-GDH (in words) [1]: high effect | Residual activity ratio (%) after treatment at 50° C., 15 min [1]: 64.7% | storage stabilization effect on the powdered enzyme (in words) [4]: enhance the stability | GDH activity (U/vial) Immediately after pulverization ([4]; Table 8, stabilizer 60%): 401 U/vial | GDH activity (U/vial) Immediately before pulverization ([4]; Table 8, stabilizer 60%): 397 U/vial | GDH activity Residual ratio (%) ([4]; Table 8, stabilizer 60%, 25° C., 7 h, then 37° C. for 1 week): 48.6% | GDH activity (U/vial) At 37° C. for 1 week ([4]; Table 8, stabilizer 60%, after treatment at 70% humidity, 25° C., 7 h, then 37° C. for 1 week): 195 U/vial | Residual activity ratio (%) [2]: 15.8% | GLD activity value (U/ml) 50° C., 15 min [2]: 0.431 U/ml | thermal stabilization effect on FAD-GDH (in words) [2]: high effect | GDH Residual activity ratio (%) after treatment at 50° C., 30 min [3, 5]: 39.10% | GDH Residual activity ratio (%) after treatment at 50° C., 30 min ([3]; final concentration 0.01%): 11.2% | GDH Residual activity ratio (%) after treatment at 50° C., 30 min ([3]; final concentration 0.1%): 20.4% | GDH Residual activity ratio (%) after treatment at 50° C., 30 min ([3]; final concentration 1%): 42.3% | thermal stabilization effect of trehalose (in words) ([3]; final concentration of 0.01%, 50° C., 30 min): the stabilization effect was exerted

O=C[C@@H](O)[C@@H](O)[C@H](O)[C@H](O)CO [D-(+)-mannose]
thermal stabilization effect on FAD-GDH (in words) [1]: high effect | Residual activity ratio (%) after treatment at 50° C., 15 min [1]: 65.3% | Residual activity ratio (%) [2]: 16.5% | GLD activity value (U/ml) 50° C., 15 min [2]: 0.448 U/ml | thermal stabilization effect on FAD-GDH (in words) [2]: high effect | GDH Residual activity ratio (%) after treatment at 50° C., 30 min [3, 5]: 47.78%

N[C@@H](CO)C(=O)O [L-serine]
GDH Residual activity ratio (%) after treatment at 50° C., 15 min ([1]; Table 3): 33% | GDH Residual activity ratio (%) after treatment at 50° C., 15 min ([1]; Table 3 second column): 11.5% | thermal stabilization effect on FAD-GDH (in words) [1]: high effect | Residual activity ratio (%) after treatment at 50° C., 15 min [1]: 27.0% | storage stabilization effect on the powdered enzyme (in words) [4]: enhance the stability | GDH activity (kU/vial) Immediately after pulverization ([4]; Table 7, stabilizer 60% relative to FAD-GDH protein, vacuum freeze-dry): 19.8 kU/vial | GDH activity Residual ratio (%) ([4]; Table 7, stabilizer 60%, 25° C., 24 h, then 37° C. for 1 week, activity immediately after FDR = 100%): 41.3% | GDH activity (kU/vial) After 1 week at 37° C. ([4]; Table 7, stabilizer 60%, after treatment at 70% humidity, 25° C., 24 h, then 37° C. for 1 week): 8.2 kU/vial | Residual activity ratio (%) [2]: 3.0% | GLD activity value (U/ml) 50° C., 15 min [2]: 0.078 U/ml | thermal stabilization effect on FAD-GDH (in words) [2]: high effect

CO[C@H]1O[C@H](CO)[C@@H](O)[C@H](O)[C@H]1O [Methyl-a-D-glucoside]
thermal stabilization effect on FAD-GDH (in words) [1]: high effect | Residual activity ratio (%) after treatment at 50° C., 15 min [1]: 53.6% | Residual activity ratio (%) [2]: 9.4% | GLD activity value (U/ml) 50° C., 15 min [2]: 0.267 U/ml | thermal stabilization effect on FAD-GDH (in words) [2]: high effect
